Measurements taken from publication PMC5218480 (PLoS ONE, 2017).

System: MV-4-11 cells
Experiment: Gene expression microarray analysis (Affymetrix PrimeView) and GSEA
Assay type: cell-based, human
Set-up: RFU PODN (11730768_x_at) / Fold change /veh PODN (11730768_x_at) / RFU LINC00158 (11744669_a_at) / Fold change /veh LINC00158 (11744669_a_at) / RFU DUSP10 (11751237_a_at) / Fold change /veh DUSP10 (11751237_a_at) / RFU ID3 (11757404_x_at) / Fold change /veh ID3 (11757404_x_at) / RFU PLEKHG5 (11737974_s_at) / Fold change /veh PLEKHG5 (11737974_s_at) / RFU LRRC4B (11730491_at) / Fold change /veh LRRC4B (11730491_at) / RFU GIMAP4 (11747438_a_at) / Fold change /veh GIMAP4 (11747438_a_at) / RFU KRT8 (11758183_x_at) / Fold change /veh KRT8 (11758183_x_at) / RFU CNN1 (11734310_a_at) / Fold change /veh CNN1 (11734310_a_at) / RFU VPS37D (11726825_at) / Fold change /veh VPS37D (11726825_at) / RFU C10orf10 (11716522_x_at) / Fold change /veh C10orf10 (11716522_x_at) / RFU KIR2DL2 /// KIR2DL4 /// KIR2DL5A /// KIR2DL5B /// KIR2DS1 /// KIR2DS2 /// KIR2DS3 /// KIR2DS4 /// KIR3DL3 /// KIR3DL3 /// KIR3DS1 (11738374_at) / Fold change /veh KIR2DL2 /// KIR2DL4 /// KIR2DL5A /// KIR2DL5B /// KIR2DS1 /// KIR2DS2 /// KIR2DS3 /// KIR2DS4 /// KIR3DL3 /// KIR3DL3 /// KIR3DS1 (11738374_at) / RFU C1QL1 (11718748_at) / Fold change /veh C1QL1 (11718748_at) / RFU TMPRSS4 (11747572_a_at) / Fold change /veh TMPRSS4 (11747572_a_at) / RFU HAMP (11756126_x_at) / Fold change /veh HAMP (11756126_x_at) / RFU RNFT2 (11725882_a_at) / Fold change /veh RNFT2 (11725882_a_at) / RFU NR4A2 (11747474_a_at) / Fold change /veh NR4A2 (11747474_a_at) / RFU ABCC12 (11746883_a_at) / Fold change /veh ABCC12 (11746883_a_at) / RFU TMEM136 (11760407_x_at) / Fold change /veh TMEM136 (11760407_x_at) / RFU CLDN22 /// WWC2 (11732394_at) / Fold change /veh CLDN22 /// WWC2 (11732394_at) / RFU HLA-DPB1 (11760878_x_at) / Fold change /veh HLA-DPB1 (11760878_x_at) / RFU SPINT1 (11716480_a_at) / Fold change /veh SPINT1 (11716480_a_at) / RFU GAP43 (11754022_s_at) / Fold change /veh GAP43 (11754022_s_at) / RFU A4GNT (11735810_at) / Fold change /veh A4GNT (11735810_at) / RFU PRB3 (11715151_x_at) / Fold change /veh PRB3 (11715151_x_at) / RFU TUBB4B (11761932_at) / Fold change /veh TUBB4B (11761932_at) / RFU CAPN14 (11732068_a_at) / Fold change /veh CAPN14 (11732068_a_at) / RFU TMCC2 (11721928_a_at) / Fold change /veh TMCC2 (11721928_a_at) / RFU IRGQ (11745062_a_at) / Fold change /veh IRGQ (11745062_a_at) / RFU FAM174B (11720279_a_at) / Fold change /veh FAM174B (11720279_a_at) / RFU TMPRSS4 (11748680_a_at) / Fold change /veh TMPRSS4 (11748680_a_at) / RFU FAM212B (11763350_a_at) / Fold change /veh FAM212B (11763350_a_at) / RFU PLEKHG5 (11743358_a_at) / Fold change /veh PLEKHG5 (11743358_a_at) / RFU ZSCAN30 (11745921_a_at) / Fold change /veh ZSCAN30 (11745921_a_at) / RFU CMKLR1 (11741424_a_at) / Fold change /veh CMKLR1 (11741424_a_at) / RFU LOC101060620 /// MAPK8IP1 (11723275_at) / Fold change /veh LOC101060620 /// MAPK8IP1 (11723275_at) / RFU SPTSSB (11747773_x_at) / Fold change /veh SPTSSB (11747773_x_at) / RFU PRSS12 (11739890_at) / Fold change /veh PRSS12 (11739890_at) / RFU BIN1 (11741810_x_at) / Fold change /veh BIN1 (11741810_x_at) / RFU WNT11 (11732464_a_at) / Fold change /veh WNT11 (11732464_a_at) / RFU C10orf10 (11716521_a_at) / Fold change /veh C10orf10 (11716521_a_at) / RFU C5orf56 (11738089_at) / Fold change /veh C5orf56 (11738089_at) / RFU CYB561 (11721691_x_at) / Fold change /veh CYB561 (11721691_x_at) / RFU ANKRD19P (11752326_a_at) / Fold change /veh ANKRD19P (11752326_a_at) / RFU OR2T12 /// OR2T33 /// OR2T8 (11738714_s_at) / Fold change /veh OR2T12 /// OR2T33 /// OR2T8 (11738714_s_at) / RFU VCAN (11748164_a_at) / Fold change /veh VCAN (11748164_a_at) / RFU JSRP1 (11732532_at) / Fold change /veh JSRP1 (11732532_at) / RFU KRTAP10-11 (11738290_x_at) / Fold change /veh KRTAP10-11 (11738290_x_at) / RFU MYO3A (11730013_a_at) / Fold change /veh MYO3A (11730013_a_at) / RFU EBF3 (11725865_a_at) / Fold change /veh EBF3 (11725865_a_at) / RFU CAMK2N1 (11719241_x_at) / Fold change /veh CAMK2N1 (11719241_x_at) / RFU C5orf56 (11738088_a_at) / Fold change /veh C5orf56 (11738088_a_at) / RFU OLFML3 (11715873_a_at) / Fold change /veh OLFML3 (11715873_a_at) / RFU LOC100653217 /// NTM (11731650_a_at) / Fold change /veh LOC100653217 /// NTM (11731650_a_at) / RFU MAPK11 (11762145_a_at) / Fold change /veh MAPK11 (11762145_a_at) / RFU FIZ1 (11724087_x_at) / Fold change /veh FIZ1 (11724087_x_at) / RFU OASL (11726364_x_at) / Fold change /veh OASL (11726364_x_at) / RFU SOX15 (11748057_x_at) / Fold change /veh SOX15 (11748057_x_at) / RFU CD79A (11719716_a_at) / Fold change /veh CD79A (11719716_a_at) / RFU HIST1H1D (11736915_at) / Fold change /veh HIST1H1D (11736915_at) / RFU CASKIN2 (11723855_a_at) / Fold change /veh CASKIN2 (11723855_a_at) / RFU LOC730098 (11760151_x_at) / Fold change /veh LOC730098 (11760151_x_at) / RFU OR4N2 (11742367_at) / Fold change /veh OR4N2 (11742367_at) / RFU PRRT2 (11749266_a_at) / Fold change /veh PRRT2 (11749266_a_at) / RFU SNX32 (11753110_a_at) / Fold change /veh SNX32 (11753110_a_at) / RFU CDHR5 (11726645_a_at) / Fold change /veh CDHR5 (11726645_a_at) / RFU RCAN1 (11760418_a_at) / Fold change /veh RCAN1 (11760418_a_at) / RFU FAM167A (11723789_a_at) / Fold change /veh FAM167A (11723789_a_at) / RFU FAM26E (11764081_at) / Fold change /veh FAM26E (11764081_at) / RFU ISYNA1 (11749810_s_at) / Fold change /veh ISYNA1 (11749810_s_at) / RFU ACY1 (11761880_at) / Fold change /veh ACY1 (11761880_at) / RFU 11764098_at / Fold change /veh 11764098_at / RFU SAMD14 (11745864_x_at) / Fold change /veh SAMD14 (11745864_x_at) / RFU NPB (11741838_a_at) / Fold change /veh NPB (11741838_a_at) / RFU TMPRSS6 (11731388_a_at) / Fold change /veh TMPRSS6 (11731388_a_at) / RFU KRTAP10-2 (11738614_at) / Fold change /veh KRTAP10-2 (11738614_at) / RFU ARHGAP8 /// PRR5-ARHGAP8 (11727945_x_at) / Fold change /veh ARHGAP8 /// PRR5-ARHGAP8 (11727945_x_at) / RFU KRTAP5-7 /// NADSYN1 (11734609_at) / Fold change /veh KRTAP5-7 /// NADSYN1 (11734609_at) / RFU RASL12 (11751679_a_at) / Fold change /veh RASL12 (11751679_a_at) / RFU CDKN2B (11736163_a_at) / Fold change /veh CDKN2B (11736163_a_at) / RFU PRF1 (11729649_at) / Fold change /veh PRF1 (11729649_at) / RFU, ZNF638 /// ZNF638-IT1 / Fold change vs veh, ZNF638 /// ZNF638-IT1 / RFU, PANK3 / Fold change vs veh, PANK3 / RFU, SH3YL1 / Fold change vs veh, SH3YL1 / RFU, ZEB2 / Fold change vs veh, ZEB2 / RFU, NRIP1 / Fold change vs veh, NRIP1 / RFU, PTTG1IP / Fold change vs veh, PTTG1IP / RFU, CAPN2 / Fold change vs veh, CAPN2 / RFU, MED14 / Fold change vs veh, MED14 / RFU, SNORA58 / Fold change vs veh, SNORA58 / RFU, C1orf63 / Fold change vs veh, C1orf63 / RFU, LRRFIP1 / Fold change vs veh, LRRFIP1 / RFU, NDUFAF7 / Fold change vs veh, NDUFAF7 / RFU, SLC12A2 / Fold change vs veh, SLC12A2 / RFU, IBTK / Fold change vs veh, IBTK / RFU, ESF1 / Fold change vs veh, ESF1 / Fold change vs veh, TMEM50B / RFU, TAOK1 / Fold change vs veh, TAOK1 / RFU, ACBD3 / Fold change vs veh, ACBD3 / RFU, TMA16 / Fold change vs veh, TMA16 / RFU, RWDD3 / Fold change vs veh, RWDD3 / RFU, BCAT1 / Fold change vs veh, BCAT1 / RFU, EDEM3 / Fold change vs veh, EDEM3 / RFU, TMEM33 / Fold change vs veh, TMEM33 / RFU, WDR75 / Fold change vs veh, WDR75 / RFU, AHCTF1 / Fold change vs veh, AHCTF1 / RFU, TFRC / Fold change vs veh, TFRC / RFU, ZDHHC17 / Fold change vs veh, ZDHHC17 / RFU, NOM1 / Fold change vs veh, NOM1 / RFU, ARL8B / Fold change vs veh, ARL8B / RFU, ZBTB11 / Fold change vs veh, ZBTB11 / RFU, TAMM41 / Fold change vs veh, TAMM41 / RFU, KIAA1704 /// LOC100996395 / Fold change vs veh, KIAA1704 /// LOC100996395 / RFU, ING1 / Fold change vs veh, ING1 / RFU, TRMT61B / Fold change vs veh, TRMT61B / RFU, FUBP3 / Fold change vs veh, FUBP3 / RFU, TP53 / Fold change vs veh, TP53 / RFU, TNKS2 / Fold change vs veh, TNKS2 / RFU, ZFP14 / Fold change vs veh, ZFP14 / RFU, ACTR2 / Fold change vs veh, ACTR2 / RFU, PPP3R1 / Fold change vs veh, PPP3R1 / RFU, PIK3R1 / Fold change vs veh, PIK3R1 / RFU, HNRNPA1 / Fold change vs veh, HNRNPA1 / RFU, RNF170 / Fold change vs veh, RNF170 / RFU, ZNF28 / Fold change vs veh, ZNF28 / RFU, RNGTT / Fold change vs veh, RNGTT / RFU, OGT / Fold change vs veh, OGT / RFU, BRD1 / Fold change vs veh, BRD1 / RFU, MARS / Fold change vs veh, MARS / RFU, ZNF655 / Fold change vs veh, ZNF655 / RFU, FAHD1 / Fold change vs veh, FAHD1 / RFU, BDP1 / Fold change vs veh, BDP1 / RFU, LRRCC1 / Fold change vs veh, LRRCC1 / RFU, ARID1A / Fold change vs veh, ARID1A / RFU, ZNF146 / Fold change vs veh, ZNF146 / RFU, ZNF330 / Fold change vs veh, ZNF330 / RFU, GPN3 / Fold change vs veh, GPN3 / RFU, C9orf123 / Fold change vs veh, C9orf123 / RFU, N4BP2L2 / Fold change vs veh, N4BP2L2 / RFU, ARFIP1 / Fold change vs veh, ARFIP1 / RFU, FAM179B / Fold change vs veh, FAM179B / RFU, BCL10 / Fold change vs veh, BCL10 / RFU, UHRF1BP1L / Fold change vs veh, UHRF1BP1L / RFU, BET1 / Fold change vs veh, BET1 / RFU, CNOT2 / Fold change vs veh, CNOT2 / RFU, ZNF268 / Fold change vs veh, ZNF268 / Fold change vs veh, ZNF507 / RFU, DGCR2 / Fold change vs veh, DGCR2 / RFU, WDSUB1 / Fold change vs veh, WDSUB1 / Fold change vs veh, HSP90B1 /// MIR3652 / RFU, ADSS / Fold change vs veh, ADSS / RFU, GK / Fold change vs veh, GK / RFU, ZNF148 / Fold change vs veh, ZNF148 / RFU, TAF9 / Fold change vs veh, TAF9 / RFU, SLC1A5 / Fold change vs veh, SLC1A5 / RFU, SLMO2 / Fold change vs veh, SLMO2 / RFU, ABCC4 / Fold change vs veh, ABCC4 / RFU, LOC101060439 /// RAP1B / Fold change vs veh, LOC101060439 /// RAP1B / RFU, RFX7 / Fold change vs veh, RFX7 / RFU, GTPBP10 / Fold change vs veh, GTPBP10 / RFU, CNEP1R1 / Fold change vs veh, CNEP1R1 / RFU, BIVM-ERCC5 /// ERCC5 / Fold change vs veh, BIVM-ERCC5 /// ERCC5 / RFU, ILF3 / Fold change vs veh, ILF3 / RFU 11762660_at / Fold change /veh 11762660_at / RFU VCAN (11757783_s_at) / Fold change /veh VCAN (11757783_s_at) / RFU DDX43 (11728927_at) / Fold change /veh DDX43 (11728927_at) / RFU KRT8 (11758188_x_at) / Fold change /veh KRT8 (11758188_x_at) / RFU NKD1 (11759106_at) / Fold change /veh NKD1 (11759106_at) / RFU SRD5A1 (11742802_a_at) / Fold change /veh SRD5A1 (11742802_a_at) / RFU TPSAB1 /// TPSB2 (11721975_s_at) / Fold change /veh TPSAB1 /// TPSB2 (11721975_s_at) / RFU GSTM3 (11746129_a_at) / Fold change /veh GSTM3 (11746129_a_at) / RFU IL23R (11737362_x_at) / Fold change /veh IL23R (11737362_x_at) / RFU TMEM51 (11727254_a_at) / Fold change /veh TMEM51 (11727254_a_at) / RFU PIWIL2 (11732686_x_at) / Fold change /veh PIWIL2 (11732686_x_at) / RFU ORM1 (11744905_x_at) / Fold change /veh ORM1 (11744905_x_at) / RFU CCDC152 (11743942_at) / Fold change /veh CCDC152 (11743942_at) / RFU ECM1 (11717891_a_at) / Fold change /veh ECM1 (11717891_a_at) / RFU IL23R (11748794_a_at) / Fold change /veh IL23R (11748794_a_at) / RFU TNFAIP8L3 (11732012_x_at) / Fold change /veh TNFAIP8L3 (11732012_x_at) / RFU MBOAT4 (11741988_at) / Fold change /veh MBOAT4 (11741988_at) / RFU 11764193_at / Fold change /veh 11764193_at / RFU TMEM53 (11763286_at) / Fold change /veh TMEM53 (11763286_at) / RFU MAGEB2 (11727129_at) / Fold change /veh MAGEB2 (11727129_at) / RFU TMEM200A (11744735_a_at) / Fold change /veh TMEM200A (11744735_a_at) / RFU CCDC152 (11751479_a_at) / Fold change /veh CCDC152 (11751479_a_at) / RFU FAM211A (11726209_a_at) / Fold change /veh FAM211A (11726209_a_at) / RFU RGS16 (11746705_a_at) / Fold change /veh RGS16 (11746705_a_at) / RFU VCAN (11755009_s_at) / Fold change /veh VCAN (11755009_s_at) / RFU RHOB (11743442_s_at) / Fold change /veh RHOB (11743442_s_at) / RFU RGS16 (11720943_a_at) / Fold change /veh RGS16 (11720943_a_at) / RFU RGS16 (11720944_at) / Fold change /veh RGS16 (11720944_at) / RFU, VPS4B / Fold change vs veh, VPS4B / RFU, CREB1 / Fold change vs veh, CREB1 / RFU, DNAJC13 / Fold change vs veh, DNAJC13 / RFU, GNAQ / Fold change vs veh, GNAQ / RFU, CDK5R1 / Fold change vs veh, CDK5R1 / RFU, ZRANB3 / Fold change vs veh, ZRANB3 / RFU, CUL4A / Fold change vs veh, CUL4A / RFU, CCNY / Fold change vs veh, CCNY / RFU, UFL1 / Fold change vs veh, UFL1 / RFU, COG3 / Fold change vs veh, COG3 / RFU, DIAPH2 / Fold change vs veh, DIAPH2 / RFU, SKA2 / Fold change vs veh, SKA2 / RFU, AFF3 / Fold change vs veh, AFF3 / RFU, LMF1 / Fold change vs veh, LMF1 / RFU, IPO11 / Fold change vs veh, IPO11 / RFU, DFFB / Fold change vs veh, DFFB / RFU, FOXP1 / Fold change vs veh, FOXP1 / RFU, CARD8 / Fold change vs veh, CARD8 / RFU, STRN3 / Fold change vs veh, STRN3 / RFU, ADK / Fold change vs veh, ADK / RFU, RASSF2 / Fold change vs veh, RASSF2 / RFU, WIPF1 / Fold change vs veh, WIPF1 / RFU, LARP1B / Fold change vs veh, LARP1B / RFU, RASA1 / Fold change vs veh, RASA1 / RFU, RB1 / Fold change vs veh, RB1 / RFU, PPFIA1 / Fold change vs veh, PPFIA1 / RFU, MAT2A / Fold change vs veh, MAT2A / RFU, CCT5 / Fold change vs veh, CCT5 / RFU, WDR92 / Fold change vs veh, WDR92 / RFU, CUX1 / Fold change vs veh, CUX1 / RFU, TTC7A / Fold change vs veh, TTC7A / RFU, TMEM135 / Fold change vs veh, TMEM135 / RFU, DEPTOR / Fold change vs veh, DEPTOR / RFU, CPM / Fold change vs veh, CPM / RFU, DNAJB6 / Fold change vs veh, DNAJB6 / RFU, CACNA2D3 / Fold change vs veh, CACNA2D3 / RFU, DTX4 / Fold change vs veh, DTX4 / RFU, TFCP2 / Fold change vs veh, TFCP2 / RFU, GMCL1 /// GMCL1P1 / Fold change vs veh, GMCL1 /// GMCL1P1 / RFU, AEBP2 / Fold change vs veh, AEBP2 / RFU, SNHG1 /// SNORD22 /// SNORD25 /// SNORD26 /// SNORD27 /// SNORD28 /// SNORD29 /// SNORD31 / Fold change vs veh, SNHG1 /// SNORD22 /// SNORD25 /// SNORD26 /// SNORD27 /// SNORD28 /// SNORD29 /// SNORD31 / Fold change (Aza/veh), C12orf56 (ProbeSet 11735607_a_at) / Fold change (ACY-1035/veh), C12orf56 (ProbeSet 11735607_a_at) / Fold change (Aza/veh), FGFR1OP (ProbeSet 11751329_s_at) / Fold change (ACY-1035/veh), FGFR1OP (ProbeSet 11751329_s_at) / Fold change (Aza/veh), VPS36 (ProbeSet 11739960_a_at) / Fold change (ACY-1035/veh), VPS36 (ProbeSet 11739960_a_at) / RFU SYPL1 (11715823_x_at) / Fold change /veh SYPL1 (11715823_x_at) / RFU IGFBP7 (11715501_s_at) / Fold change /veh IGFBP7 (11715501_s_at) / RFU REEP3 (11722064_at) / Fold change /veh REEP3 (11722064_at) / RFU IGLL1 (11728026_x_at) / Fold change /veh IGLL1 (11728026_x_at): dose or concentration left out as unconfirmed
Settings: ProbeSet 11731461_x_at; LIST D

`Nc1ccc(-c2cccs2)cc1NC(=O)c1ccc2c(c1)cc(C1CC1)n2CCN1CCOCC1` [ACY-1035] was tested, and the “Fold change vs veh, CPM” value was 0.83.
